The results in this text go back to patent US11912697B1, “1,3-benzothiazol-2-yl-N′-[(pyridine-3-carbonyl)oxy]ethanimidamide as an antitumor and antimicrobial compound” (King Faisal University, priority 2023, dated 2024).

The subject of series [1] is human osteosarcoma cells (MG-63). Put plainly: Cytotoxicity by SRB assay, MG-63 cells. The format is cell-based. The settings on record: for IC50: mean ± SD. Here is the method: (§1) The human prostate cancer cells (PC3) and human osteosarcoma cells (MG-63) were obtained from Nawah Scientific Inc. (Mokatam, Cairo, Egypt) and cultured in DMEM (Dulbecco's modified eagle's medium), Gibco, USA, supplemented with fetal bovine serum (FBS) at a concentration of 10% and 100 U/mL of penicillin and streptomycin (PS). The Cells were incubated at 37° C. in a humidified environment that contained 5% CO2.
(§2) Cells were seeded in 96-well plates as aliquots of 100 μL cell suspension and incubated in a complete media for 24 h. Afterward, cells were treated with N′-[(2-chlorobenzoyl)oxy]-1,3-benzothiazole-2-carboximidamide at diverse concentrations ranging from 0.01 μM to 100 μM for 72 h. Then, cells were fixed at 4° C. for one hour with 150 μL of 10% trichloroacetic acid (TCA). After washing the cells five times with distilled water, 70 μL of sulforhodamine (SRB) solution (0.4% w/v) was added and incubated for 10 min at room temperature in a dark place. Cells were washed with 1% acetic acid three times and allowed to air-dry. Then, 150 μL of Tris pH 10.5 (10 mM) was added, and the absorbance was measured at 540 nm using a BMG LABTECH®-FLUOstar Omega microplate reader (Ortenberg, Germany). Half maximal inhibitory concentrations (IC50) values were calculated for each experiment using GraphPad Prism 6 software. IC50 values were reported as mean […] SD.
(§3) The inhibition was calculated using the following equation: Inhibition %=100−Average Viability
Background: Sulforhodamine B stains cellular protein and so reports cell mass.

Series [2] deals with human prostate cancer cells (PC3). As to the kind of experiment: Cytotoxicity by SRB assay, PC3 cells. The format is cell-based. To be noted: PC-3 cells; for IC50: mean ± SD. Here is the method: as §1, §2, §3
For series [3], the system named is Bacillus cereus, Staphylococcus aureus, Pseudomonas aeruginosa, Escherichia coli, Aspergillus flavus, Chrysosporium keratinophilum. Put plainly: Agar plate disc-diffusion antimicrobial screen. The format is cell-based. To be noted: 10 μL of 10 mg/mL in DMSO per disc, result in words only. How it is done: The agar plate disc-diffusion method was applied. Sterilized filter papers (6 mm in diameter) were wetted with 10 μL of a solution of each compound to be tested, containing 10 mg/mL in DMSO, and the discs were allowed to air dry. The discs were then placed onto the surface of agar plates (nutrient agar for bacteria and Sabouraud's dextrose agar for fungi) and seeded with the test organism. Each plate contained 15 mL of the agar medium, previously seeded with 0.2 mL of the broth culture of each organism pre-grown for 18 h. The plates were incubated at 37° C. for 48 h, and 72 h for fungi. The inhibition zones were measured in mm. Discs impregnated with DMSO were used as a control, and its inhibition zone was subtracted from the tested compound actual inhibition zone.
In particular, the present 1,3-benzothiazol-2-yl-N′-[(pyridine-3-carbonyl)oxy]ethanimidamide was screened against gram positive bacteria, namely Bacillus cereus and Staphylococcus aureus, and gram-negative bacterial strains, namely Pseudomonas aeruginosa and Escherichia coli, while the antifungal activity was screened against Aspergillus flavus and Chrysosporium keratinophilum.
Background: A growth-free zone around the sample is the usual read-out of agar diffusion tests.

Usually IC50 stands for the midpoint of a concentration-inhibition curve. For `COc1cccc2c1C(=O)c1c(O)c3c(c(O)c1C2=O)C[C@@](O)(C(=O)CO)C[C@@H]3O[C@H]1C[C@H](N)[C@H](O)[C@H](C)O1` [DOX, Doxorubicin, reference compound], the IC50 in series [1] (Homo sapiens, MG-63, 72 h) worked out at 9.4 ± 1.1 µM; in series [2] (Homo sapiens, PC-3, 72 h), 7.6 ± 0.45 µM.
In the case of `NC(=NOC(=O)c1ccccc1Cl)c1nc2ccccc2s1` [N′-[(2-chlorobenzoyl)oxy]-1,3-benzothiazole-2-carboximidamide], in series [3], the antimicrobial activity entry was “excellent antimicrobial activities”.
The term melting point denotes the temperature of the solid-liquid transition. In general, inhibition refers to how much of the control response was suppressed. `N/C(Cc1nc2ccccc2s1)=N\OC(=O)c1cccnc1` [Present Compound, 1,3-benzothiazol-2-yl-N′-[(pyridine-3-carbonyl)oxy]ethanimidamide]: the melting point lay in the range of 150 to 152 °C. For the same compound, the antimicrobial activity entry in series [3] was “high levels of antimicrobial activity”. For the same compound, the concentration for half-maximal inhibition (IC50) in series [1] (72 h) came to 3.59 ± 0.2 µM. In addition, in series [1] (Homo sapiens, 10 μg/ml, 72 h), 10 µg/mL produced 91.2% inhibition. The compound also registered an inhibition at 100 µg/mL in series [1] (Homo sapiens, 100 μg/ml, 72 h) of 92.1%. This compound yielded a half-inhibitory concentration (IC50) in series [1] (Homo sapiens, MG-63, 72 h) below 4 µM. Also, in series [2] (10 μg/ml, 72 h), the “Prostate Cancer (PC-3) Inhibition %” value stood at 96.21%. Further, testing at 10 µg/mL in series [2] (Homo sapiens, PC-3, 72 h, 10 μg/ml) gave an inhibition of 96%. The compound also had an inhibition at 100 µg/mL in series [2] (Homo sapiens, PC-3, 72 h, 100 μg/ml) of 97%. For the same compound, in series [2] (Homo sapiens, PC-3, 72 h), the 50% inhibitory concentration (IC50) was below 4 µM. In series [2] (72 h), this compound returned an IC50 of 2.71 ± 0.03 µM.
